# In patent US6710055B2, “Disubstituted bicyclic heterocycles, the preparation thereof, and their use as pharmaceutical compositions” (Boehringer Ingelheim Pharma GmbH & Co., KG, priority 1997, dated 2004):
# Read-outs that look alike come from different tables or passages of the source.
# Tests used:
# Test thrombin (bovine) = molecular target: T1, Test thrombin (bovine) (Bos taurus, UniProt P00735); test: Thrombin time in human citrated plasma (Biomatic B10 coagulometer); format: biochemical
# T1 construct: purchased Behring Werke, Marburg
# Protocol: were investigated as follows for their effects on thrombin time:
# Materials: plasma, from human citrated blood.
# Test thrombin (bovine), 30U/mL, Behring Werke, Marburg
# Diethylbarbiturate acetate buffer, ORWH 60/61, Behring Werke, Marburg
# Biomatic B10 coagulometer, Sarstedt
# The thrombin time was determined using a Biomatic B10 coagulometer made by Messrs. Sarstedt. As the test substance, 0.1 mL of human citrated plasma and 0.1 mL diethylbarbiturate buffer (DBA buffer) were added to the test strip prescribed by the manufacturer. The mixture was incubated for one minute at 37° C. The clotting reaction was started by the addition of 0.3 U test thrombin in 0.1 mL DBA buffer. The time is measured using the apparatus from the addition of the thrombin up to the clotting of the mixture. Mixtures to which 0.1 mL of DBA buffer were added were used as the controls.
# thrombocyte aggregation = test: Inhibitory effect on thrombocyte aggregation; format: cell-based
# rats = details: doses of up to 10 mg/kg i.v.
# [1] = concentration at which the thrombin time is double compared with the control, human citrated plasma, 0.3 U test thrombin (bovine), 37° C.
SMILES,Thrombin time (ED200 in μM) (Test thrombin (bovine); [1]) [µM],other results
"Cn1c(CNc2ccc(C(=N)N)cc2)nc2cc(C(=O)N(CCC(=O)O)c3ccccc3)ccc21 [D, 1-methyl-2-[N-(4-amidinophenyl)aminomethyl]benzimidazol-5-yl-carboxylic acid-N-phenyl-N-(2-hydroxycarbonylethyl)amide]",–,Thrombin time (ED200 in μM) (Test thrombin (bovine)): 0.03 µM
CCOC(=O)CCN(c1ccccc1)S(=O)(=O)c1ccc2c(c1)nc(CNc1ccc(C(=N)N)cc1)n2C.Cl,–,melting point: 188 to 191 °C
"Cn1c(CNc2ccc(C(=N)N)cc2)nc2cc(C(=O)N(CC(=O)O)c3ccccn3)ccc21 [E, 1-methyl-2-[N-(4-amidinophenyl)aminomethyl]benzimidazol-5-yl-carboxylic acid-N-(2-pyridyl)-N-(hydroxycarbonylmethyl)amide]",0.09,–
"CN(Cc1nc2cc(C(=O)N(CCC(=O)O)c3ccccc3)ccc2s1)c1ccc(C(=N)N)cc1.Cl [Example 16, 2-[N-(4-amidinophenyl)-N-methylaminomethyl]benzothiazol-5-yl-carboxyiic acid-N-phenyl-N-(2-hydroxycarbonylethyl)amide hydrochloride]",–,inhibitory effect on thrombocyte aggregation (thrombocyte aggregation): slight inhibitory effect
"[H]/N=C(/N)c1ccc(NCc2nc3cc(C(=O)N(CCC(=O)O)c4ccccn4)ccc3n2C)cc1 [G, 1-methyl-2-[N-(4-amidinophenyl)aminomethyl]benzimidazol-5-yl-carboxylic acid-N-(2-pyridyl)-N-(2-hydroxycarbonylethyl)amide]",–,Thrombin time (ED200 in μM) (Test thrombin (bovine)): 0.03 µM; acute toxic side effects (rats): no acute toxic side effects were observed
"Cn1c(CCc2ccc(C(=N)N)cc2)nc2cc(C(=O)N(CCCC(=O)O)c3ccccc3)ccc21 [B, 1-methyl-2-[2-(4-amidinophenyl)ethyl]benzimidazol-5-yl-carboxylic acid-N-phenyl-N-(3-hydroxycarbonylpropyl)amide]",0.06,–
"Cn1c(COc2ccc(C(=N)N)cc2)nc2cc(C(=O)N(CC(=O)O)c3ccccc3)ccc21 [C, 1-methyl-2-[(4-amidinophenyl)oxymethyl]benzimidazol-5-yl-carboxylic acid-N-phenyl-N-(hydroxycarbonylmethyl)amide]",0.15,–
"N=C(N)c1ccc(NCc2nc3cc(C(=O)N(CCC(=O)O)c4ccccc4)ccc3s2)cc1 [A, 2-[N-(4-amidinophenyl)aminomethyl]benzthiazole-5-carboxylic acid-N-phenyl-N-(2-carboxyethyl)amide]",0.04,–
"Cn1c(CCc2ccc(C(=N)N)cc2)nc2cc(C(=O)N(CCc3nnn[nH]3)c3ccccc3)ccc21 [F, 1-methyl-2-[2-(4-amidinophenyl)ethyl]benzimidazol-5-yl-carboxylic acid-N-phenyl-N-[2-(1H-tetrazol-5-yl)ethyl]amide]",0.03,–
